Results as given in PMC4550221 (Bioorganic & medicinal chemistry, 2015).
Where a name gives a salt, the structure may show the parent alone. Read-outs that look alike come from different tables or passages of the source.

Experiments:
HepG2 72 h cytotoxicity = conditions: human, HepG2 cells
P. falciparum 3D7 [1] = test: Inhibition of parasite growth in P. falciparum 3D7-infected red blood cells; format: cell-based, Plasmodium falciparum; conditions: for 3D7 potency described in words (relative to comparator): comparator 4e unless 4-series (4a); for fold reduction in 3D7 potency: relative to 4e (isopentyl R1); for IC50: Plasmodium falciparum, 3D7, Erythrocyte; for fold loss in 3D7 potency: R8 changes relative to parent analog (4a series)
HepG2 cells = test: HepG2 72 h cytotoxicity; conditions: HepG2 cytotoxicity vs antimalarial activity
P. falciparum 3D7 [2] = conditions: read-out: reported XC50; TCAMS screening dataset; cited from earlier work
[3] = Rat PK experiment in vivo; conditions: iv, 1 mg/kg
Plasmodium = conditions: read-out: reported EC50; Novartis-GNF collection, GNF-Pf-5345; cited from earlier work

Row | Compound | 3D7 potency described in words (relative to comparator) (P. falciparum 3D7 [1]) | further results
1 | CCN1C(=O)N(CCC(C)C)C2(CCN(Cc3cc(-c4ccccc4)ccc3O)CC2)C1=O [Compound 12f] |  | IC50 at 72 h (HepG2 72 h cytotoxicity): > 50 µM
2 | CC(C)CCN1C(=O)N(CCCc2ccncc2)C(=O)C12CCN(Cc1cc(Cl)ccc1O)CC2 [Compound 11d] | modest two-three-fold losses of potency | 
3 | CCN1C(=O)N(CC)C2(CCN(Cc3cc(Cl)ccc3O)CC2)C1=O [Compound 10b] |  | fold reduction in 3D7 potency (P. falciparum 3D7 [1]): ≥ 20 fold
4 | CCN1C(=O)N(CCC(C)C)C2(CCN(Cc3cc(Cl)c(Cl)cc3O)CC2)C1=O [Compound 12k] |  | IC50 (P. falciparum 3D7 [1]; read-out: IC50 in P. falciparum 3D7 infected erythrocytes, 3D7 (chloroquine-sensitive) strain): 99 nM; IC50 at 72 h (HepG2 72 h cytotoxicity): > 50 µM; selectivity index (HepG2 cells): greater than 500
5 | CCN1C(=O)N(CCC(C)C)C2(CCN(Cc3ccc(OC)cc3O)CC2)C1=O [Compound 4a] |  | IC50 (P. falciparum 3D7 [2]): 840 nM
6 | CCN1C(=O)N(c2ccccc2)C2(CCN(Cc3cc(Cl)ccc3O)CC2)C1=O [Compound 10d] | detrimental to potency | 
7 | CCN1C(=O)N(CCC(C)C)C2(CCN(Cc3cccc4cc[nH]c34)CC2)C1=O [Compound 12u] | hint of potency | 
8 | CCN1C(=O)N(CCC(C)C)C2(CCN(Cc3cc(Cl)ccc3O)CC2)C1=O [Compound 4e, 8-(5-chloro-2-hydroxybenzyl)-3-ethyl-1-isopentyl-1,3,8-triazaspiro[4.5]decane-2,4-dione hydrochloride] | about a five-fold improvement in potency | IC50 (P. falciparum 3D7 [1]; read-out: IC50 in P. falciparum 3D7 infected erythrocytes): 310 nM; clearance [3]: 152 mL/min/kg; EC50 (Plasmodium): 349 nM; selectivity index (HepG2 cells): > 100
9 | CCN1C(=O)N(Cc2ccc(OC)cc2)C2(CCN(Cc3cc(Cl)ccc3O)CC2)C1=O [Compound 10g] | tolerated with some modest effects on potency | 
10 | CCN1C(=O)N(CCC(C)C)C2(CCN(Cc3cc(Br)ccc3O)CC2)C1=O [Compound 12d] | well tolerated | 
11 | CCN1C(=O)N(CCC(C)C)C2(CCN(Cc3c(O)cccc3Cl)CC2)C1=O [Compound 12g] | essentially equipotent | 
12 | CCN1C(=O)N(Cc2ccccc2)C2(CCN(Cc3cc(Cl)ccc3O)CC2)C1=O [Compound 10e] | roughly equipotent | 
13 | CCN1C(=O)N(Cc2ccc(C#N)cc2)C2(CCN(Cc3cc(Cl)ccc3O)CC2)C1=O [Compound 10h] | tolerated with some modest effects on potency | 
14 | CCN1C(=O)N(CCC(C)C)C2(CCN(Cc3ccccc3O)CC2)C1=O [Compound 4d] | did not have a significant impact on potency | 
15 | CCN1C(=O)N(CCC(C)C)C2(CCN(Cc3cccc(Cl)c3)CC2)C1=O [Compound 4f] |  | fold loss in 3D7 potency (P. falciparum 3D7 [1]): 8- to 60 fold
16 | CC(C)CCN1C(=O)N(Cc2cccnc2)C(=O)C12CCN(Cc1cc(Cl)ccc1O)CC2 [Compound 11c] | modest two-three-fold losses of potency | 
17 | CCN1C(=O)N(CCC(C)C)C2(CCN(Cc3cccc(OC)c3O)CC2)C1=O [Compound 4b] |  | fold loss in 3D7 potency (P. falciparum 3D7 [1]): 6 fold
18 | CCN1C(=O)N(CCC(C)C)C2(CCN(Cc3cc(Cl)cc(Cl)c3O)CC2)C1=O [Compound 12j] | equipotent | 
19 | CC(C)CCN1C(=O)N(C(C)C)C(=O)C12CCN(Cc1cc(Cl)ccc1O)CC2 [Compound 11b] | improved potency three-fold | 
20 | CCN1C(=O)N(CCc2ccccc2)C2(CCN(Cc3cc(Cl)ccc3O)CC2)C1=O [Compound 10f] | roughly equipotent | 
21 | CCN1C(=O)N(CCC(C)C)C2(CCN(Cc3ccc(OC)cc3OC)CC2)C1=O [Compound 4g] |  | fold loss in 3D7 potency (P. falciparum 3D7 [1]): 8- to 60 fold
22 | CCN1C(=O)N(CCC(C)C)C2(CCN(Cc3ccc(Cl)cc3O)CC2)C1=O [Compound 12h] | three- to seven-fold less potent | IC50 at 72 h (HepG2 72 h cytotoxicity): > 50 µM
23 | CC(C)CCN1C(=O)NC(=O)C12CCN(Cc1cc(Cl)ccc1O)CC2 [Compound 11a] | dramatic loss in activity | 
24 | CCN1C(=O)N(CCC(C)C)C2(CCN(C(=O)c3cc(Cl)ccc3O)CC2)C1=O [Compound 12m] | lack of 3D7 potency | 
25 | CCN1C(=O)N(C2CCCC2)C2(CCN(Cc3cc(Cl)ccc3O)CC2)C1=O [Compound 10c] | well tolerated | 
26 | CCN1C(=O)N(CCC(C)C)C2(CCN(Cc3cc(O)cc(Cl)c3)CC2)C1=O [Compound 12a] | increasingly detrimental to 3D7 potency | 
27 | CCN1C(=O)NC2(CCN(Cc3cc(Cl)ccc3O)CC2)C1=O [Compound 10a] |  | fold reduction in 3D7 potency (P. falciparum 3D7 [1]): ≥ 20 fold
